Data published in patent US5462958A, “Benzene derivatives and method of treating arteriosclerosis with benzene derivatives” (Eisai Co., Ltd., priority 1992, dated 1995).

Tests used:
Assay type in all cases: biochemical
[1] = system: ACAT; assay: ACAT-inhibitory activity in vitro, supernatant of homogenate of the epithelial cell (CaCO2) resulting from human colon cancer (acylation of cholesterol with radiolabeled oleoyl-CoA)
Experimental: (§1) Representative compounds according to the present invention were examined for ACAT-inhibitory activity according to the in-vitro test method described in Journal of Lipid Research, vol. 24, pp. 1049-1059 (1983) by F. J. Field and S. N. Mathur.
(§2) The inhibitory activity of a test compound against the acylation, which was based on the inhibitory activity of the test compound against the enzyme which catalyzes the acylation of cholesterol with oleoyl-CoA, was evaluated by using one of the supernatant of homogenate of the arterial wall of a rabbit, the microsome of the small intestine of a rat and the supernatant of homogenate of the epithelial cell (CaCO2) resulting from human colon cancer as an enzyme source, determining the amount of a radioisotope-labeled cholesterol oleate made from a radiolabeled oleoyl-CoA and (free) cholesterol and comparing the result of the case when a test compound was added with the result of control (the case when no test compound was added).
(§3) The data which are given in Table 1 are IC50 values, i.e., the concentrations of test compounds necessary for inhibiting 50% of the enzymatic activity of ACAT.

[2] = biological target: T1, ACAT (Oryctolagus cuniculus, UniProt A0A5F9CPP4); assay: ACAT-inhibitory activity in vitro, supernatant of homogenate of the arterial wall of a rabbit (acylation of cholesterol with radiolabeled oleoyl-CoA)
T1 construct: supernatant of homogenate of the arterial wall of a rabbit; from tissue; host or cells: supernatant of homogenate of rabbit arterial wall
T1 sequence (A0A5F9CPP4 1-555): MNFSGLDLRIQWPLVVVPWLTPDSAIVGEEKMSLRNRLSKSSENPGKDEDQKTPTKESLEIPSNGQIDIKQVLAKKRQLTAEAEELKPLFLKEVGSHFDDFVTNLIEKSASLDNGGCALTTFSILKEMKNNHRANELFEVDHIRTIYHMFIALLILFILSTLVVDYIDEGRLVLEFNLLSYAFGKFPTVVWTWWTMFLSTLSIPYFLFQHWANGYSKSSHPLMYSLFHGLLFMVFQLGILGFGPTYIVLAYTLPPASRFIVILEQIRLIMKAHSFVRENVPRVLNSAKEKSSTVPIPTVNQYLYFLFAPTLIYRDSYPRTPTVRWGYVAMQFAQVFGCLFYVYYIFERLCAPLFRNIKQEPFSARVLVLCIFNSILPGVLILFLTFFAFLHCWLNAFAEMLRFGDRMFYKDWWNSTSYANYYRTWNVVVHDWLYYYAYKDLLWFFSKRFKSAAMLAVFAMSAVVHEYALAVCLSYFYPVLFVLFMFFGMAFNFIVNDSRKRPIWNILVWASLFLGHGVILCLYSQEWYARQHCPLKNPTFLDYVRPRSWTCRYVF
Experimental: as §1, §2, §3

[3] = biological target: T2, ACAT (Rattus norvegicus, UniProt Q7TQM4); assay: ACAT-inhibitory activity in vitro, microsome of the small intestine of a rat (acylation of cholesterol with radiolabeled oleoyl-CoA)
T2 construct: the microsome of the small intestine of a rat; from tissue; host or cells: microsomes of rat small intestine
T2 sequence (Q7TQM4 1-524): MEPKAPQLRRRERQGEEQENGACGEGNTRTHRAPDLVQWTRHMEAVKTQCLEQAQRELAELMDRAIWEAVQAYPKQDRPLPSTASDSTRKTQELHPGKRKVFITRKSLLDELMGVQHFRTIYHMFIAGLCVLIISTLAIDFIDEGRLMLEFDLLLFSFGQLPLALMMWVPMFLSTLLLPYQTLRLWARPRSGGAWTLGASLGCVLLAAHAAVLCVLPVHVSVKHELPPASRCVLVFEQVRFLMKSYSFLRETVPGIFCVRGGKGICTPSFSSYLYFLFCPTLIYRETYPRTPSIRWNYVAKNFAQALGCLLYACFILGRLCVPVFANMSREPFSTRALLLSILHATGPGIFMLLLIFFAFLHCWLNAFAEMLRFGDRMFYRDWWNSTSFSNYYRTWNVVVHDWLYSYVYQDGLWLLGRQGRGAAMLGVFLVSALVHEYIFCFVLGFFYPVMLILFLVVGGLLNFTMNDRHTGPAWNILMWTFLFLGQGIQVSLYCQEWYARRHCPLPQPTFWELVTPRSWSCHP
Experimental: as §1, §2, §3

SMILES	IC50 [1]	IC50 [2]	IC50 [3]
CCCCNC(=O)Nc1c(OCCCn2cnc(-c3ccccc3)c2CC)ccc(O)c1C [Example 11, N-Butyl-N'-[2-[3-(5-ethyl-4-phenyl-1H-imidazol-1-yl)propoxy]-5-hydroxy-6-methylphenyl]urea]	0.1 µM	0.26 µM	0.068 µM
CCCCNC(=O)Nc1c(C)cccc1OCCCn1cnc(-c2ccc(O)cc2)c1CC [Example 2, N-Butyl-N'-[2-[3-[5-ethyl-4-(4-hydroxyphenyl)-1H-imidazol-1-yl]propoxy]-6-methylphenyl]urea]	1 µM	6.9 µM	
CCCCNC(=O)Nc1c(C)cccc1OCCCn1cnc(-c2ccccc2)c1C(C)O (centres unmarked) [Example 5, N-Butyl-N'-[2-[3-[5-(1-hydroxyethyl)-4-phenyl-1H-imidazol-1-yl]propoxy]-6-methylphenyl]urea]	0.17 µM	0.85 µM	0.15 µM
CCCCNC(=O)Nc1c(CO)cccc1OCCCn1cnc(-c2ccccc2)c1CC [Example 9, N-Butyl-N'-[2-[3-(5-ethyl-4-phenyl-1H-imidazol-1-yl)propoxy]-6-hydroxymethylphenyl]urea]	0.32 µM	0.7 µM	0.084 µM
CCc1c(-c2ccccc2)ncn1CCCOc1cccc(C)c1NC(=O)NCCC(C)O (centres unmarked) [Example 10, N-(3-Hydroxybutyl)-N'-[2-[3-(5-ethyl-4-phenyl-1H-imidazol-1-yl)propoxy]-6-methylphenyl]urea]	0.48 µM	1 µM	4.2 µM
CCCCNC(=O)Nc1c(C)cc(O)cc1OCCCn1cnc(-c2ccccc2)c1CC [Example 1, N-Butyl-N'-[2-[3-(5-ethyl-4-phenyl-1H-imidazol-1-yl)propoxy]-4-hydroxy-6-methylphenyl]urea]		0.58 µM	
CCc1c(-c2ccccc2)ncn1CCCOc1cccc(C)c1NC(N)=O [Example 8, N-[2-[3-(5-Ethyl-4-phenyl-1H-imidazol-1-yl)propoxy]-6-methylphenyl]urea]	3.5 µM		
CCc1c(-c2ccccc2)ncn1CCCOc1cccc(C)c1NC(=O)NCCCCO [Example 6, N-(4-Hydroxybutyl)-N'-[2-[3-(5-ethyl-4-phenyl-1H-imidazol-1-yl)propoxy]-6-methylphenyl]urea]		3.8 µM	
